In US6166290A, “Glutathione-S-conjugate transport in plants” (The Trustees of the University of Pennsylvania, priority 1997, dated 2000):
“And” between values parts separate entries of the source, which are not always exact repeats. Identical values can stand only once.

Tests used:
[1] = molecular target: T1, YCF1 (vacuolar membrane vesicles purified from DTY165 cells) (Saccharomyces cerevisiae, UniProt P39109); assay: [3H]DNP-GS uptake by vacuolar membrane vesicles purified from DTY165 cells; assay type: biochemical
T1 construct: endogenous in cells; host or cells: S. cerevisiae DTY165 (wild type YCF1), vacuolar membrane vesicles
Summary of the method: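 ATP-dependent [3H]DNP-GS (66.2 μM) transport measured by filtration and scintillation counting of Ficoll-purified yeast vacuolar vesicles (DTY165 wild type; DTY167 ycf1Δ), 1–60 min at 25 °C in sorbitol/Tris-Mes pH 8.0 with 3 mM ATP, 3 mM MgSO4 and gramicidin-D. Nonenergized uptake without ATP/Mg2+.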

[2] = molecular target: T1, YCF1 (vacuolar membrane vesicles purified from DTY165 cells); assay: biochemical; assay type: biochemical; conditions: read-out: Ki(DNP-GS) for inhibition of Cd.GS2 uptake
Summary of the method: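 Vacuolar vesicles from wild-type (DTY165) or ycf1Δ (DTY167) yeast, washed free of DTT/EGTA into glycerol/Tris-Mes pH 8.0. MgATP-energized, uncoupler-insensitive uptake of 109Cd2+, GSH or purified radiolabeled Cd·GSn complexes measured at 25°C. Medium: 3 mM ATP/MgSO4, ATP-regenerating system, 5 μM gramicidin-D, Tris-Mes pH 8.0; washes contained 100 μM CdSO4.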

[3] = test system: membrane vesicles purified from pYES3-transformed DTY168 cells; assay: DNP-GS uptake by membrane vesicles from pYES3 (empty vector)-transformed DTY168 cells; assay type: biochemical, Saccharomyces cerevisiae
Protocol: S. cerevisiae strain DTY168 (MATα his6, leu2-3, -112, ura3-52 ycf1::hisG) was transformed with pYES3-AtMRP1 or empty vector lacking the AtMRP1 insert (pYES3) by the LiOAc/PEG method (Giest et al., 1991, Yeast 7:253-263) and selected for uracil prototrophy by plating on AHC medium containing tryptophan (Kim et al., 1994, supra).
For the preparation of membrane vesicles, 15 ml volumes of stationary phase cultures of the transformants were diluted into 1 L of fresh AHC medium and grown to an OD600 nm of about 1.2. Membrane vesicles were purified as described herein and in Kim et al. (1995, supra).
DNP-GS uptake was measured as described herein in 200 μl reaction volumes containing 3 mM ATP, 3 mM MgSO4, 5 μM gramicidin-D, 10 mM creatine phosphate, 16 units/ml creatine kinase, 50 mM KCl, 1 mg/ml BSA, 400 mM sorbitol, 25 mM Tris-Mes (pH 8.0) and the indicated concentrations of [^3 H]DNP-GS (17.4 mCi/mmol).

T1 sequence (P39109 whole entry): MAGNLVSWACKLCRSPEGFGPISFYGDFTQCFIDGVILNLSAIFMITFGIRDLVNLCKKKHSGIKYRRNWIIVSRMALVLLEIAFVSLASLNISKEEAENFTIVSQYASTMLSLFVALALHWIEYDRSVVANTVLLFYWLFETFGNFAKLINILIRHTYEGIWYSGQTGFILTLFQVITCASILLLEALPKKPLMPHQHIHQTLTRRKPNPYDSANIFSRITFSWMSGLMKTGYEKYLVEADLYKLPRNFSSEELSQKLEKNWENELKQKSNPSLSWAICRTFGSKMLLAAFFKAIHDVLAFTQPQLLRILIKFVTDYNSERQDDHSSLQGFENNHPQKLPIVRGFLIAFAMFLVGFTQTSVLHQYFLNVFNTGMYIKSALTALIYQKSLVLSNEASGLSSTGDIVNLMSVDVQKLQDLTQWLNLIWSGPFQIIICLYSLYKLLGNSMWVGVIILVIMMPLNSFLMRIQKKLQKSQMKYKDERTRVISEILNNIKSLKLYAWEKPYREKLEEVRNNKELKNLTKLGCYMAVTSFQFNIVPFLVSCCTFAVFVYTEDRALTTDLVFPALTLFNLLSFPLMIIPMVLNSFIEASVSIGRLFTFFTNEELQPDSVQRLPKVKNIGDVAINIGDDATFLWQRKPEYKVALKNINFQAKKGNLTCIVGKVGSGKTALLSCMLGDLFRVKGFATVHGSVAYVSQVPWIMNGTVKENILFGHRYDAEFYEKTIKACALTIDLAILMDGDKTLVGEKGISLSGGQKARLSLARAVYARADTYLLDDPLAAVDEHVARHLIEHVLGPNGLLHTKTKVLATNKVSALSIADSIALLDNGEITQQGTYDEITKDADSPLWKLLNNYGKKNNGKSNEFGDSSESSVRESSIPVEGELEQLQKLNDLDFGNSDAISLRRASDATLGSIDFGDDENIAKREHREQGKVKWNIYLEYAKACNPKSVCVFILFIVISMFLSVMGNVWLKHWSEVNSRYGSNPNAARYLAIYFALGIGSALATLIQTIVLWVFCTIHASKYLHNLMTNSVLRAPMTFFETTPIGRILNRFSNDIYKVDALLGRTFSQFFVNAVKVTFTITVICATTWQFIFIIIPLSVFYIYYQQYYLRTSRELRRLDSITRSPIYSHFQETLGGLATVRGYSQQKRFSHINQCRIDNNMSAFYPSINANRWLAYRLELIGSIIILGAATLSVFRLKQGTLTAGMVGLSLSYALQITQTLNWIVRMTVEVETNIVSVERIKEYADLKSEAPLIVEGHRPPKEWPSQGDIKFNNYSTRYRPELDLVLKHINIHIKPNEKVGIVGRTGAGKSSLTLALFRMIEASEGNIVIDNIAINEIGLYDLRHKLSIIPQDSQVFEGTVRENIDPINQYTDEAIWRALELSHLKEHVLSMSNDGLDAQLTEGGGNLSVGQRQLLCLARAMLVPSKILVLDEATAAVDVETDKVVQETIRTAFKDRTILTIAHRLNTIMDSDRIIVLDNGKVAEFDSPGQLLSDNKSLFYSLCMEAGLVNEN

N[C@@H](CCC(=O)N[C@@H](CSc1ccc([N+](=O)[O-])cc1[N+](=O)[O-])C(=O)NCC(=O)O)C(=O)O [DNP-GS, S-(2,4-dinitrophenyl)glutathione]
Vmax(DNP-GS) of MgATP-dependent uncoupler-insensitive uptake ([1]; 3 mM MgATP, 5 μM gramicidin D): 51.0±16.3 nmol/mg/10 minutes and 51.0±6.3 nmol/mg/10 minutes
initial rate of DNP-GS uptake ([1]; 3 mM MgATP, 66.2 μM DNP-GS): 12.2 nmol/mg/min
DNP-GS uptake, control ([1]; Table 1: 66.2 μM DNP-GS, 3 mM MgATP, no addition): 77.7 ± 1.0 nmol/mg/10 minutes
MgATP-dependent, uncoupler-insensitive DNP-GS uptake, control ([1]; Table 2: 5 μM gramicidin D, no compound): 47.9 ± 2.5 nmol/mg/10 minutes
MgATP-dependent, uncoupler-insensitive DNP-GS uptake, vacuolar membrane ([1]; Table 4, vacuolar membrane vesicles from DTY165 cells): 69.9 ± 1.0 nmol/mg/10 min
MgATP-dependent, uncoupler-insensitive DNP-GS uptake, crude microsomes ([1]; crude microsomes from DTY165 cells): 2.5 ± 0.3 nmol/mg/10 min
Ki [2]: 11.3 ± 2.1 µM
initial rate of DNP-GS uptake ([3]; 61.3 μM DNP-GS): 0.1 nmol/mg/min
Km ([3]; read-out: apparent Km for DNP-GS uptake): > 500 µM
